Values joined by “and” are separate entries in the source; they are usually repeats but may differ in a detail not shown here. Equal entries are not always repeated. Inconclusive results and toxic doses are left out.
Tested on: BDF1 mice, P388 leukemia ip, median survival T/C
Test: NCI In Vivo Anticancer Drug Screen. Data for tumor model P388 Leukemia (intraperitoneal) in B6D2F1 (BDF1) mice
Conditions: endpoint: median survival time, higher = longer survival
In short: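 Each value expresses how treatment altered survival: treated-mouse outcome over vehicle-mouse outcome, both groups bearing the transplanted tumour.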

[1] = dose: 100.0 mg/kg/injection, schedule: Q01DX009 (ip), vehicle: saline with Tween-80
[2] = dose: 200.0 mg/kg/injection, schedule: Q01DX009 (ip), vehicle: saline with Tween-80
[3] = dose: 25.0 mg/kg/injection, schedule: Q01DX009 (ip), vehicle: saline with Tween-80
[4] = dose: 50.0 mg/kg/injection, schedule: Q01DX009 (ip), vehicle: saline with Tween-80

NC(=O)c1cc([N+](=O)[O-])ccc1N
T/C (dose: 100.0 mg/kg/injection, schedule: Q04DX003 (ip), vehicle: saline sonified): 115 % of control | T/C (dose: 200.0 mg/kg/injection, schedule: Q04DX003 (ip), vehicle: saline sonified): 110 % of control | T/C (dose: 400.0 mg/kg/injection, schedule: Q04DX003 (ip), vehicle: saline sonified): 120 % of control

N=[N+]=CC(=O)CCC(NC(=O)C(CCC(=O)C=[N+]=N)NC(=O)CCC(N)C(=O)O)C(=O)O (stereo not given)
T/C (dose: 0.1 mg/kg/injection, schedule: Q01DX009 (ip), vehicle: Klucel (hydroxypropylcellulose) (HPC)): 88 % of control | T/C (dose: 0.2 mg/kg/injection, schedule: Q01DX009 (ip), vehicle: Klucel (hydroxypropylcellulose) (HPC)): 92 % of control | T/C (dose: 0.2 mg/kg/injection, schedule: Q01DX009 (ip), vehicle: water): 163 % of control | T/C (dose: 0.2 mg/kg/injection, schedule: Q01DX010 (ip), vehicle: other): 170 % of control | T/C (dose: 0.3 mg/kg/injection, schedule: Q01DX009 (ip), vehicle: water): 109 % of control | T/C (dose: 0.4 mg/kg/injection, schedule: Q01DX009 (ip), vehicle: Klucel (hydroxypropylcellulose) (HPC)): 94 % of control | T/C (dose: 0.4 mg/kg/injection, schedule: Q01DX009 (ip), vehicle: water): 150 % of control | T/C (dose: 0.4 mg/kg/injection, schedule: Q01DX010 (ip), vehicle: other): 210 % of control | T/C (dose: 0.4 mg/kg/injection, schedule: Q01DX010 (ip), vehicle: water): 172 % of control | T/C (dose: 0.5 mg/kg/injection, schedule: Q01DX009 (ip), vehicle: water): 86 % of control | T/C (dose: 0.6 mg/kg/injection, schedule: Q01DX009 (ip), vehicle: water): 90 % of control | T/C (dose: 0.6 mg/kg/injection, schedule: Q01DX010 (ip), vehicle: other): 120 % of control | T/C (dose: 0.6 mg/kg/injection, schedule: Q01DX010 (ip), vehicle: water): 109 % of control and 110 % of control | T/C (dose: 0.8 mg/kg/injection, schedule: Q01DX009 (ip), vehicle: Klucel (hydroxypropylcellulose) (HPC)): 102 % of control | T/C (dose: 0.8 mg/kg/injection, schedule: Q01DX010 (ip), vehicle: other): 110 % of control | T/C (dose: 0.8 mg/kg/injection, schedule: Q01DX010 (ip), vehicle: water): 100 % of control | T/C (dose: 1.0 mg/kg/injection, schedule: Q01DX010 (ip), vehicle: water): 90 % of control | T/C (dose: 1.6 mg/kg/injection, schedule: Q01DX009 (ip), vehicle: Klucel (hydroxypropylcellulose) (HPC)): 97 % of control | T/C (dose: 2.5 mg/kg/injection, schedule: Q02DX005 (oral), vehicle: other): 163 % of control | T/C (dose: 5.0 mg/kg/injection, schedule: Q02DX005 (oral), vehicle: other): 159 % of control | T/C (dose: 7.5 mg/kg/injection, schedule: Q04DX003 (ip), vehicle: water): 154 % of control | T/C (dose: 10.0 mg/kg/injection, schedule: Q02DX005 (oral), vehicle: other): 177 % of control | T/C (dose: 12.5 mg/kg/injection, schedule: Q04DX003 (oral), vehicle: water): 172 % of control | T/C (dose: 15.0 mg/kg/injection, schedule: Q02DX005 (oral), vehicle: other): 209 % of control | T/C (dose: 15.0 mg/kg/injection, schedule: Q04DX003 (ip), vehicle: water): 200 % of control | T/C (dose: 20.0 mg/kg/injection, schedule: Q02DX005 (oral), vehicle: other): 195 % of control | T/C (dose: 25.0 mg/kg/injection, schedule: Q04DX003 (oral), vehicle: water): 200 % of control | T/C (dose: 30.0 mg/kg/injection, schedule: Q04DX003 (ip), vehicle: water): 218 % of control | T/C (dose: 50.0 mg/kg/injection, schedule: Q04DX003 (oral), vehicle: water): 222 % of control | T/C (dose: 100.0 mg/kg/injection, schedule: Q04DX003 (oral), vehicle: water): 104 % of control

CCCCCCCCNC(=O)C1OC(n2cnc3c(N)ncnc32)C(O)C1O (stereo not given)
T/C (dose: 25.0 mg/kg/injection, schedule: Q01DX009 (ip), vehicle: saline): 95 % of control | T/C (dose: 50.0 mg/kg/injection, schedule: Q01DX009 (ip), vehicle: saline): 90 % of control | T/C (dose: 100.0 mg/kg/injection, schedule: Q01DX009 (ip), vehicle: saline): 95 % of control and 105 % of control | T/C (dose: 100.0 mg/kg/injection, schedule: Q04DX003 (ip), vehicle: saline): 95 % of control | T/C (dose: 200.0 mg/kg/injection, schedule: Q01DX009 (ip), vehicle: saline): 90 % of control and 109 % of control | T/C (dose: 200.0 mg/kg/injection, schedule: Q04DX003 (ip), vehicle: saline): 105 % of control | T/C (dose: 400.0 mg/kg/injection, schedule: Q04DX003 (ip), vehicle: saline): 90 % of control

CC(C(=O)c1cc(O)c(O)cc1C(O)(C(F)(F)F)C(F)(F)F)C(O)(C(F)(F)F)C(F)(F)F (stereo not given)
T/C [1]: 100 % of control | T/C [2]: 100 % of control | T/C (dose: 400.0 mg/kg/injection, schedule: Q01DX009 (ip), vehicle: saline with Tween-80): 95 % of control

N/C(=N\OC(=O)NC(Cl)=C(Cl)Cl)c1ccc(Cl)cc1
T/C (dose: 50.0 mg/kg/injection, schedule: Q01DX005 (ip), vehicle: saline with Tween-80): 92 % of control | T/C (dose: 100.0 mg/kg/injection, schedule: Q01DX005 (ip), vehicle: saline with Tween-80): 114 % of control

CCN(CC)CCNc1ccc([N+](=O)[O-])c2sc3ccccc3c(=O)c12
T/C (dose: 50.0 mg/kg/injection, schedule: Q01DX009 (ip), vehicle: saline sonified): 177 % of control | T/C (dose: 100.0 mg/kg/injection, schedule: Q01DX009 (ip), vehicle: saline sonified): 95 % of control

C/C=C/C=N/NC(=S)NC
T/C (dose: 6.75 mg/kg/injection, schedule: Q01DX009 (ip), vehicle: saline with Tween-80): 109 % of control | T/C (dose: 13.5 mg/kg/injection, schedule: Q01DX009 (ip), vehicle: saline with Tween-80): 91 % of control | T/C (dose: 27.0 mg/kg/injection, schedule: Q01DX009 (ip), vehicle: saline with Tween-80): 86 % of control

CN(C)C1CCc2ccccc2C1OC(=O)/C=C/c1ccccc1 (stereo not given)
T/C [3]: 100 % of control | T/C [4]: 102 % of control | T/C [1]: 102 % of control

O=C1CC(Cl)C(=O)N1c1ccccc1 (stereo not given)
T/C (dose: 75.0 mg/kg/injection, schedule: Q04DX003 (ip), vehicle: saline with Tween-80): 108 % of control | T/C (dose: 150.0 mg/kg/injection, schedule: Q04DX003 (ip), vehicle: saline with Tween-80): 104 % of control | T/C (dose: 300.0 mg/kg/injection, schedule: Q04DX003 (ip), vehicle: saline with Tween-80): 104 % of control

Cc1sc([N+](=O)[O-])cc1[N+](=O)[O-]
T/C (dose: 25.0 mg/kg/injection, schedule: Q04DX003 (ip), vehicle: Klucel (hydroxypropylcellulose) (HPC)): 91 % of control | T/C (dose: 50.0 mg/kg/injection, schedule: Q04DX003 (ip), vehicle: Klucel (hydroxypropylcellulose) (HPC)): 95 % of control | T/C (dose: 100.0 mg/kg/injection, schedule: Q04DX003 (ip), vehicle: Klucel (hydroxypropylcellulose) (HPC)): 91 % of control

CCOC(=O)N(C)C1CCC1NC (stereo not given)
T/C (dose: 50.0 mg/kg/injection, schedule: Q01DX001 (ip), vehicle: saline): 100 % of control | T/C (dose: 100.0 mg/kg/injection, schedule: Q01DX001 (ip), vehicle: saline): 95 % of control | T/C (dose: 200.0 mg/kg/injection, schedule: Q01DX001 (ip), vehicle: saline): 95 % of control

O=C(c1ccccc1)C(O)(CC(c1ccccc1)[P+](c1ccccc1)(c1ccccc1)c1ccccc1)c1ccccc1 (stereo not given)
T/C (dose: 0.87 mg/kg/injection, schedule: Q01DX009 (ip), vehicle: saline): 108 % of control | T/C (dose: 3.12 mg/kg/injection, schedule: Q01DX009 (ip), vehicle: Klucel (hydroxypropylcellulose) (HPC)): 122 % of control | T/C (dose: 3.5 mg/kg/injection, schedule: Q01DX009 (ip), vehicle: saline): 120 % of control | T/C (dose: 6.25 mg/kg/injection, schedule: Q01DX009 (ip), vehicle: Klucel (hydroxypropylcellulose) (HPC)): 113 % of control | T/C (dose: 6.25 mg/kg/injection, schedule: Q04DX003 (ip), vehicle: saline with Tween-80): 109 % of control | T/C (dose: 12.5 mg/kg/injection, schedule: Q04DX003 (ip), vehicle: Klucel (hydroxypropylcellulose) (HPC)): 104 % of control | T/C (dose: 12.5 mg/kg/injection, schedule: Q04DX003 (ip), vehicle: saline with Tween-80): 118 % of control

COC(CN1C(=O)CSC1=S)OC
T/C [3]: 100 % of control | T/C [4]: 104 % of control and 117 % of control | T/C [2]: 109 % of control

CCC(CC)C(O)C(C)C(C)O (stereo not given)
T/C (dose: 100.0 mg/kg/injection, schedule: Q04DX003 (ip), vehicle: saline with Tween-80): 100 % of control | T/C (dose: 200.0 mg/kg/injection, schedule: Q04DX003 (ip), vehicle: saline with Tween-80): 100 % of control | T/C (dose: 400.0 mg/kg/injection, schedule: Q04DX003 (ip), vehicle: saline with Tween-80): 100 % of control
